Activity calls are given as the source filed them. How the calls were made is not given here.
target: Induced myeloid leukemia cell differentiation protein Mcl-1 (Homo sapiens) (UniProt Q07820); test: modulators of Bim peptide binding to Mcl-1, dose response, biochemical, bead-based flow cytometry, multiplexed, human (AID 1329); conditions: Bim peptide-Mcl-1 binding, MCF
Sequence (Q07820 whole entry, looked up): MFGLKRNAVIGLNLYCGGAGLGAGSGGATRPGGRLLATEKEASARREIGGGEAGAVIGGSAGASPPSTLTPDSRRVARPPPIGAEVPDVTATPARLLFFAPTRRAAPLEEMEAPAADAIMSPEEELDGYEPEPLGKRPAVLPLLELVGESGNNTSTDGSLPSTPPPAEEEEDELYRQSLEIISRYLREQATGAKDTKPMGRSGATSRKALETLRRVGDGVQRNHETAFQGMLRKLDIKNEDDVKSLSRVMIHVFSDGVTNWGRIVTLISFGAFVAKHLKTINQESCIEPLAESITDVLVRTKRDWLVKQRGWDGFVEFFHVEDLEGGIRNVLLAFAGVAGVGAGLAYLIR

Structure (SMILES) | percent span
CCOC(=O)c1sc(N)c(C(=O)Nc2ccccc2OC)c1C | inactive
c1ccc(Nc2nc(-c3ccncc3)cs2)cc1 | inactive
Nc1cccc(-c2cn3cccnc3n2)c1 | inactive
Cc1sc2nc(C(C)C)nc(SCC(=O)N3c4ccccc4CC3C)c2c1C (stereo unspecified) | inactive
CN(Cc1ccccc1)C(=O)c1[nH]cnc1C(=O)N[C@@H](CCCCNC(=O)OC(C)(C)C)C(=O)OC(C)(C)C | inactive
S=C(Nc1ccccc1)N1CCn2cccc2C1c1cccnc1 (stereo unspecified) | inactive
CC(=O)N1CCN(C(=O)c2ccc(-n3c(C)ccc3C)cc2)CC1 | inactive
Cn1c(N)c(C(=O)COC(=O)c2cc(-c3ccco3)nc3ccccc23)c(=O)n(Cc2ccccc2)c1=O | inactive
O=C(Cc1ccccc1)OCCNC(=O)c1cccnc1 | inactive
O=C(C[n+]1ccc(-c2nnc3n2CCC3)cc1)c1ccc(Cl)c(Cl)c1 | inactive
Cc1ccc(-c2cc(C(=O)Nc3ccccc3C)c3ccccc3n2)o1 | inactive
COc1ccc(S(=O)(=O)NCCOc2cccc3cccnc23)cc1OC | inactive
COc1cc(C2Nc3cccc4cccc(c34)N2)ccc1OC(C)=O | inactive
Cc1ccc(NC2=C(Cl)C(=O)c3ccccc3C2=O)cc1 | inactive
CCOC(=O)c1nc(Nc2ccc(N3CCC(C)CC3)cc2)c2ccccc2n1 | inactive
Cn1cc(CN2C[C@]3(C)C[C@H]2CC(C)(C)C3)c(-c2ccc3c(c2)OCCO3)n1 | inactive
CC1Cc2ccccc2N1C(=O)CSc1nnnn1-c1ccc2c(c1)OCCO2 (stereo unspecified) | inactive
COc1ccc(C(=S)N2CCCCCC2)cc1 | inactive
CCSc1ncnc2sc(C)c(C)c12 | inactive
Cc1ccc(N=Cc2c(O)n(-c3ccc4c(c3)OCO4)c(=O)c3ccccc23)cc1 | inactive
CCOc1ccc(-n2cc(-c3ccc(OC)c(OC)c3)[nH]c2=S)cc1 | inactive
COc1cc(/C=C2/NC(=O)N(Cc3ccccc3F)C2=O)cc(OC)c1O | inactive
CCOC(=O)c1c(NC(C)=O)sc2c(O)c(Br)cc(Br)c12 | inactive
Cc1cc(C)c(S(=O)(=O)/N=C2/C=C(SCC(=O)O)C(=O)c3ccccc32)cc1C | inactive
COCCN=c1scc(-c2ccco2)n1/N=C/c1ccc(O)c(O)c1O | inactive
Cc1cc(C(=O)NCCCN(C)C)c2ccccc2n1 | inactive

Structure (SMILES) | percent span
CCC(=O)OCCNc1cc(Sc2nc3ccccc3[nH]2)c2nonc2c1[N+](=O)[O-] | inactive
CCC(CC)C(=O)Nc1cccc(S(=O)(=O)c2cccc(NC(=O)C(CC)CC)c2)c1 | inactive
c1ccc(-c2nnc(OCCN3CCOCC3)c3ccccc23)cc1 | inactive
NC(=O)CSc1nnc(Cn2cnc3ccccc32)o1 | inactive
O=c1c2c(n3nnnc3n1Cc1ccccc1)-c1ccccc1CC21CCCC1 | inactive
CN(Cc1cccs1)C(=O)CCc1c[nH]c2ccccc12 | inactive
Cc1ccc(NC(=O)CC2S/C(=N/N=C/c3c[nH]c4ccccc34)NC2=O)cc1 (stereo unspecified) | inactive
C/C(=C\c1ccco1)C1Nc2cccc3cccc(c23)N1 | inactive
CSc1n[nH]c2nc3c(c(=O)n12)C1(CCCC1)Cc1ccccc1-3 | inactive
Cc1cc(N)ccc1N1CCCC1 | inactive
O=C(CNC(=O)c1ccc(S(=O)(=O)N2CCCC2)cc1)N/N=C/c1ccc(Cl)cc1Cl | inactive
CCN(CC)c1ccc(NC(=O)c2cccc(C)c2)cc1S(=O)(=O)Nc1ccccc1OC | inactive
CC(C)(C)NC(=O)COc1ccc(CNc2ccc3[nH]c(=O)[nH]c3c2)cc1 | inactive
O=C(NCC1CCCO1)c1ccc2c(=O)n(-c3ccc(F)cc3)c(=S)[nH]c2c1 (stereo unspecified) | inactive
COc1ccccc1NC1=C(NC(C)=O)C(=O)c2ccccc2C1=O | inactive
O=C(c1cccc(Br)c1)N1CCN(c2cnn(-c3ccccc3)c(=O)c2Cl)CC1 | inactive
CNC(=O)c1sc(-c2ccccn2)nc1C | inactive
CC1(C)SC(=S)N(NC(=O)Nc2ccccc2)C1N(O)C(=O)Nc1cccc2ccccc12 (stereo unspecified) | inactive
O=C(CSc1nnc(-c2ccccc2)c(-c2ccccc2)n1)N1CCc2ccccc21 | inactive
CCN(C(=O)COC(=O)c1cc(-c2ccc(C)o2)nc2ccccc12)C1CCS(=O)(=O)C1 (stereo unspecified) | inactive
COc1ccc(NC(=O)c2cc(-c3ccc(C)o3)nc3ccccc23)cc1OC | inactive
CCOc1cc(S(=O)(=O)N2CCCCC2)ccc1F | inactive
c1ccc(C2=Nc3cccc4cccc(c34)N2)cc1 | inactive
CC1(C(=O)N(CC(=O)NC2CCCC2)Cc2ccco2)CC(=O)N=C2C=CC=CN21 (stereo unspecified) | inactive
CCOc1ccc(CNc2ccc(N3CCCC3)cc2)cc1 | inactive
